Two compounds from patent US7842808B2, “Anti-migraine spirocycles” (Bristol-Myers Squibb Company, priority 2002, dated 2010) can be followed below.

The Kb is the affinity of an antagonist, worked out from how it opposes an agonist.

Assay [1] concerns CGRP-induced increase in laser Doppler facial blood flow. In words: Non-terminal laser Doppler facial blood flow model in non-human primate. The settings on record: iv, CGRP 10 μg/kg. The assay is classed as in vivo, common marmoset (Callithrix jacchus). The source says: Overview. […] Non-human primates (e.g., marmosets) are the only animals known to have human-like CGRP receptor pharmacology conferred by the presence of the specific amino acid residue (Trp74) in their RAMP1 sequence which is responsible for the phenotype of the human receptor (Mallee et al. J Biol Chem 2002 277:14294). […] Peptide and small-molecule CGRP-receptor antagonists were used to validate the non-human primate model.
Animals. Adult male and female common marmosets (Callithrix jacchus) purchased from Harlan and weighing 350-550 g served as subjects. Other mammals endogenously expressing RAMP1 having Trp 74 or transgenic mammals with humanized RAMP1 having Trp 74 can also be employed in A compound described herein.
Anesthesia & Surgical Preparation. Animals are anesthetized by isoflurane inhalation in an induction chamber (4-5% rapid induction, maintained with 1-2.5%; Solomon et al., 1999). Anesthesia is maintained by delivering a constant supply of air:oxygen (50:50) and isoflurane via face mask, or by intubation and ventilation (with blood gas monitoring). Body temperature is maintained at 38±0.5° C. by placement on an automated temperature controlled surface with rectal probe. A small area of fur (approx. 1.5 cm square) is removed from one or both sides of the face by application of a depilatory cream and/or shaving. Surgical areas are clipped and prepared with betadine. An i.v. line is placed in any accessible vein for the administration of test compounds and CGRP-receptor agonist and, if needed, withdrawal of blood samples (max 2.5 ml, 10%) for blood gas monitoring and content analysis. A solution of 5% dextrose is administered i.v. in order to maintain blood sugar levels. Anesthesia depth is monitored by measuring blood pressure and heart rate using a non-invasive arm cuff method and a pulse oximeter, respectively. Guanethidine 5-10 mg/kg i.v., supplemented with 5 mg/kg i.v. as needed, may be given to stabilize the peak flux in facial blood flow seen with repeated stimulation-induced changes in blood flow (Escott et al., 1999; incorporated by reference herein). Microvascular blood flow is monitored by attaching a self adhesive laser Doppler flow probe to the facial skin.
Compound Administration Test compounds may be administered i.v. (0.01-5 ml/kg), i.m. (0.01-0.5 ml/kg), s.c. (0.01-5 ml/kg) or p.o. (0.1-10 ml/kg) (Diehl et al., 2001; incorporated by reference herein). CGRP-receptor agonists may be delivered i.v. (0.01-5 ml/kg), i.d. (10-100 μl/site) or s.c. (10-100 μl/site).

The target of assay [2] is T1, human CGRP receptor (SK-N-MC cells) (Homo sapiens, UniProt O60894+Q16602).
T1 construct: SK-N-MC cells that endogenously express the human CGRP receptor; endogenous in cells; host or cells: SK-N-MC cells
Nature of the assay: Schild analysis of CGRP stimulated cAMP production. Format: cell-based. As to conditions: for slope: Schild plot slope. As to the method:
Functional Antagonism. Antagonism of the compounds of invention was determined by measuring the formation of cyclic AMP (adenosine 3′5′-cyclic monophosphate) in SK-N-MC cells that endogenously express the human CGRP receptor. CGRP receptor complex is coupled with Gs protein and CGRP binding to this complex leads to the cyclic AMP production via Gs—dependent activation of an adenylate cyclase (Juaneda C et al., TiPS, 2000; 21:432-438; incorporated by reference herein). Consequently, CGRP receptor antagonists inhibit CGRP-induced cyclic AMP formation in SK-N-MC cells (Doods H et al., Br J Pharmacol, 2000; 129(3):420-423); incorporated by reference herein). For cyclic AMP measurements SK-N-MC cells were incubated with 0.3 nM CGRP alone or in the presence of various concentrations of the compounds of invention for 30 min at room temperature. Compounds of invention were pre-incubated with SK-N-MC cells for 15 min before the addition of CGRP to allow receptor occupancy (Edvinsson et al., Eur J Pharmacol, 2001, 415:39-44; incorporated by reference herein). Cyclic AMP was extracted using the lysis reagent and its concentration was determined by radioimmunoassay using RPA559 cAMP SPA Direct Screening Assay Kit (Amersham Pharmacia Biotech). IC50 values were calculated using Excel fit.
Schild Analysis. Schild analysis can be used to characterize the nature of antagonism of the compounds of invention. The dose response of CGRP stimulated cAMP production was generated either with CGRP alone, or in the presence of various concentrations of compounds of invention. The antagonist dose is plotted as X against the dose ratio (defined as IC50 of agonist with the presence of the compounds divided by the IC50 of the agonist alone) minus 1 as Y. Linear regression was then performed with both X and Y axis log-transformed. […] Kb is the dissociation constant of the antagonist.
(In general: Cyclic AMP is a second messenger, typically raised through Gs and lowered through Gi signalling.)

SMILES strings stand for the structures.

T1 sequence (Q16602 23-461): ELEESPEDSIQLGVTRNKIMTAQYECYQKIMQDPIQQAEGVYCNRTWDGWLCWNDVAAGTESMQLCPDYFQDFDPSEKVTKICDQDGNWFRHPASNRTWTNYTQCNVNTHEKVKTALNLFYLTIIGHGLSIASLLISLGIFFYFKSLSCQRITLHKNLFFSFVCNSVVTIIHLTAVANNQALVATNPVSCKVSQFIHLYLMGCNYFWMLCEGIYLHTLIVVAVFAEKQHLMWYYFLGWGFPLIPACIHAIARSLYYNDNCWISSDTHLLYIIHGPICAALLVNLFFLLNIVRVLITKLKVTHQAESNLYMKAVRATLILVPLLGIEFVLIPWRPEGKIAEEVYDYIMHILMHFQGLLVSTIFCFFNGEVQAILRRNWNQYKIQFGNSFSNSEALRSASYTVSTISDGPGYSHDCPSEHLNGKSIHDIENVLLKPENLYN
T1 sequence (O60894 27-148): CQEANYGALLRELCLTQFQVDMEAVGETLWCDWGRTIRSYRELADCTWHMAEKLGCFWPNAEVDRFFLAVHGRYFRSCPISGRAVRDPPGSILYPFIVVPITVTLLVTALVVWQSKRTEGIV

As for `Cc1cc(CC(CC(=O)N2CCC(N3Cc4ccccc4NC3=O)CC2)C(=O)N2CCC(N3CCCCC3)CC2)cc2cn[nH]c12` (racemic) [Example 69, (±)-1-[1,4′]Bipiperidinyl-1′-yl-2-(7-methyl-1H-indazol-5-ylmethyl)-4-[4-(2-oxo-1,4-dihydro-2H-quinazolin-3-yl)-piperidin-1-yl]-butane-1,4-dione], the “% Inhibition of CGRP-induced increase in laser Doppler facial blood flow” value in assay [1] (0.03 mg/kg) was “Y (50%<Y≦75%)”; in assay [1] (0.1 mg/kg), “Z (Z>75%)”. For the same compound, the Kb in assay [2] (Schild analysis, dissociation constant of the antagonist, read-out: Kb) turned out to be 0.016 nM. In addition, the slope in assay [2] came out at 1.
Regarding `Cc1cc(CC(NC(=O)N2CCC(N3Cc4ccccc4NC3=O)CC2)C(=O)N2CCC(N3CCCCC3)CC2)cc2cn[nH]c12` (racemic) [Example 16, (±)-4-(2-Oxo-1,4-dihydro-2H-quinazolin-3-yl)-piperidine-1-carboxylic acid[2-[1,4′]bipiperidinyl-1′-yl-1-(7-methyl-1H-indazol-5-ylmethyl)-2-oxo-ethyl]-amide], in assay [1] (0.03 mg/kg), the “% Inhibition of CGRP-induced increase in laser Doppler facial blood flow” value is on record as “Y (50%<Y≦75%)”. The compound further displayed a slope in assay [2] of 1.3.
